Test results from patent publication US20230089867A1, “CYCLIC PENTAMER COMPOUNDS AS PROPROTEIN CONVERTASE SUBTILISIN/KEXIN TYPE 9 (PCSK9) INHIBITORS FOR THE TREATMENT OF METABOLIC DISORDER” (Novartis AG, priority 2018, published 2023).
pIC50: −log10 of the molar value.

Target: human PCSK9 (Homo sapiens, UniProt Q8NBP7)
Experiment: PCSK9 ligand binding TR-FRET assay (interference with binding of human PCSK9 to human LDLR)
Settings: for Max % inhibition: PCSK9 FRET assay, efficacy (Amax), 100% = 1 uM unlabeled human PCSK9, 0% = DMSO; for pIC50: TR-FRET, human PCSK9 Alexa Fluor 647 / human LDLR extracellular domain-Europium Kryptate, read-out: PCSK9 FRET Assay IC50
Outline: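 Threefold compound dilutions were pre-incubated 30 min with PCSK9, after which 4 nM Europium Kryptate-tagged human LDLR ectodomain was added for a further 2 h.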

Chain of human PCSK9 (Q8NBP7 153-692): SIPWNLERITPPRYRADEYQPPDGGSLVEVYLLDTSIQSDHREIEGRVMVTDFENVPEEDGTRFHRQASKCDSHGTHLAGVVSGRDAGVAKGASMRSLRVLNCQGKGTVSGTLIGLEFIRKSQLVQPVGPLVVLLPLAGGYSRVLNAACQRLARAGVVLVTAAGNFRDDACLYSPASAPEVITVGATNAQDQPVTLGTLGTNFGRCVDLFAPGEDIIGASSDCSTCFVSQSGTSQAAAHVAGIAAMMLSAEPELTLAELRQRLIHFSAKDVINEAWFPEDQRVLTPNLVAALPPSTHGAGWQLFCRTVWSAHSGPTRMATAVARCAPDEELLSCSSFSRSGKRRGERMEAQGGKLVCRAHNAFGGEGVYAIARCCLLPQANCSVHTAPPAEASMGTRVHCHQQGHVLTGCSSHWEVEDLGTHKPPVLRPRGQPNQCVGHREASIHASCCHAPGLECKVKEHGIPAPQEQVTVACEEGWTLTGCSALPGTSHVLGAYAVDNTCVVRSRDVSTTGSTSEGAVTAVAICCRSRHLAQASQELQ
Chain of human PCSK9 (Q8NBP7 31-152 partner limits assumed): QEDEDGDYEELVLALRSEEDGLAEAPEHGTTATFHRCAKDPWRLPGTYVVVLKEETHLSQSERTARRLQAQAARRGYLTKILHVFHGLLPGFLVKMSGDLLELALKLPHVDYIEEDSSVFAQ

Compound | Max % inhibition | pIC50
COC[C@@H]1NC(=O)[C@H](C)N(Cc2ccc(Cl)cc2Oc2ccc(-n3cnc(CN(C)C)c3C)cc2)C(=O)C[C@@H](Cc2ccccc2)C(=O)N(C)[C@H]2CCCC[C@@H]2NC(=O)C[C@H](Cc2ccc(Cl)cc2)N(C)C1=O [Compound 292, (4S,7S,10S,14R,16aS,20aS)-14-benzyl-11-(4-chloro-2-(4-(4-((dimethylamino)methyl)-5-methyl-1H-imidazol-1-yl)phenoxy)benzyl)-4-(4-chlorobenzyl)-7-(methoxymethyl)-5,10,16-trimethylhexadecahydrobenzo[l][1,4,7,11,14]pentaazacyclooctadecine-2,6,9,12,15(3H)-pentaone] | 113.30% | 8.52
C=CC[C@@H]1CC(=O)N(Cc2ccc(Cl)cc2Oc2ccc(-c3cnc(CN(C)C)n3C)cc2)[C@@H](C)C(=O)N[C@@H](COC)C(=O)N(C)[C@@H](Cc2ccc(Cl)cc2)CC(=O)N[C@H]2CCCC[C@@H]2N(C)C1=O [Compound 110, (4S,7S,10S,14R,16aS,20aS)-14-allyl-11-(4-chloro-2-(4-(2-((dimethylamino)methyl)-1-methyl-1H-imidazol-5-yl)phenoxy)benzyl)-4-(4-chlorobenzyl)-7-(methoxymethyl)-5,10,16-trimethylhexadecahydrobenzo[l][1,4,7,11,14]pentaazacyclooctadecine-2,6,9,12,15(3H)-pentaone] | 99.22% | 8.92
COC[C@@H]1NC(=O)[C@H](C)N(Cc2ccc(Cl)cc2Oc2ccc(-c3cnc(CN(C)C)n3C)cc2)C(=O)C[C@@H](Cc2cccnc2)C(=O)N(C)[C@H]2CCCC[C@@H]2NC(=O)C[C@H](Cc2ccc(Cl)cc2)N(C)C1=O [Compound 280, (4S,7S,10S,14R,16aS,20aS)-11-(4-chloro-2-(4-(2-((dimethylamino)methyl)-1-methyl-1H-imidazol-5-yl)phenoxy)benzyl)-4-(4-chlorobenzyl)-7-(methoxymethyl)-5,10,16-trimethyl-14-(pyridin-3-ylmethyl)hexadecahydrobenzo[l][1,4,7,11,14]pentaazacyclooctadecine-2,6,9,12,15(3H)-pentaone] | 100.09% | 9.22
COC[C@@H]1NC(=O)[C@H](C)N(Cc2ccc(Cl)cc2Oc2ccc(-c3cnc(CN4CCCC4)n3C)cc2)C(=O)C[C@@H](Cc2ccccc2)C(=O)N(C)[C@@H](CCCCN(C)C)CNC(=O)C[C@H](Cc2ccc(Cl)cc2)N(C)C1=O.Cl [Compound 43, (2S,5S,8S,13S,16R)-16-benzyl-1-(4-chloro-2-(4-(1-methyl-2-(pyrrolidin-1-ylmethyl)-1H-imidazol-5-yl)phenoxy)benzyl)-8-(4-chlorobenzyl)-13-(4-(dimethylamino)butyl)-5-(methoxymethyl)-2,7,14-trimethyl-1,4,7,11,14-pentaazacyclooctadecane-3,6,10,15,18-pentaone hydrochloride] | 94.38% | 8.74
COC[C@@H]1NC(=O)[C@H](C)N(Cc2ccc(Cl)cc2Oc2ccc(-c3cnc(CN(C)C)n3C)cn2)C(=O)C[C@@H](Cc2ccccc2)C(=O)N(C)[C@H]2CCCC[C@@H]2NC(=O)C[C@H](Cc2ccc(Cl)cc2)N(C)C1=O [Compound 273, (4S,7S,10S,14R,16aS,20aS)-14-benzyl-11-(4-chloro-2-((5-(2-((dimethylamino)methyl)-1-methyl-1H-imidazol-5-yl)pyridin-2-yl)oxy)benzyl)-4-(4-chlorobenzyl)-7-(methoxymethyl)-5,10,16-trimethylhexadecahydrobenzo[l][1,4,7,11,14]pentaazacyclooctadecine-2,6,9,12,15(3H)-pentaone] | 105.53% | 8.52
COC[C@@H]1NC(=O)[C@H](C)N(Cc2c(Oc3ccc(-c4cnc(CN(C)C)n4C)cc3)cccc2OC(F)F)C(=O)C[C@@H](C)C(=O)N(C)[C@@H](C)CNC(=O)C[C@H](Cc2ccc(Cl)cc2)N(C)C1=O [Compound 62, (5S,8S,13S,16R)-8-(4-chlorobenzyl)-1-(2-(difluoromethoxy)-6-(4-(2-((dimethylamino)methyl)-1-methyl-1H-imidazol-5-yl)phenoxy)benzyl)-5-(methoxymethyl)-2,7,13,14,16-pentamethyl-1,4,7,11,14-pentaazacyclooctadecane-3,6,10,15,18-pentaone] | 88.46% | 7.77
COC[C@@H]1NC(=O)[C@H](C)N(Cc2c(F)cc(Cl)cc2Oc2ccc(-c3cnc(CN4CCCC4)n3C)cc2)C(=O)C[C@@H](Cc2ccccc2)C(=O)N(C)[C@@H](C)CNC(=O)C[C@H](Cc2ccc(Cl)cc2)N(C)C1=O [Compound 34, (2S,5S,8S,13S,16R)-16-benzyl-1-(4-chloro-2-fluoro-6-(4-(1-methyl-2-(pyrrolidin-1-ylmethyl)-1H-imidazol-5-yl)phenoxy)benzyl)-8-(4-chlorobenzyl)-5-(methoxymethyl)-2,7,13,14-tetramethyl-1,4,7,11,14-pentaazacyclooctadecane-3,6,10,15,18-pentaone] | 95.86% | 9.00
COC[C@@H]1NC(=O)[C@H](C)N(Cc2ccc(Cl)cc2Oc2ccc(-c3cnc(CN(C)C)n3C)cc2)C(=O)C[C@@H](Cc2c(F)c(F)cc(F)c2F)C(=O)N(C)[C@@H](C)CNC(=O)C[C@H](Cc2ccc(Cl)cc2)N(C)C1=O [Compound 246, (2S,5S,8S,13S,16R)-1-(4-chloro-2-(4-(2-((dimethylamino)methyl)-1-methyl-1H-imidazol-5-yl)phenoxy)benzyl)-8-(4-chlorobenzyl)-5-(methoxymethyl)-2,7,13,14-tetramethyl-16-(2,3,5,6-tetrafluorobenzyl)-1,4,7,11,14-pentaazacyclooctadecane-3,6,10,15,18-pentaone] | 103.97% | 8.62
CCNC(=O)c1ncn(-c2ccc(Oc3cc(Cl)ccc3CN3C(=O)C[C@@H](Cc4ccccc4)C(=O)N(C)[C@@H](C)CNC(=O)C[C@H](Cc4ccc(Cl)cc4)N(C)C(=O)[C@H](COC)NC(=O)[C@@H]3C)cc2)c1C [Compound 244, 1-(4-(2-(((2S,5S,8S,13S,16R)-16-benzyl-8-(4-chlorobenzyl)-5-(methoxymethyl)-2,7,13,14-tetramethyl-3,6,10,15,18-pentaoxo-1,4,7,11,14-pentaazacyclooctadecan-1-yl)methyl)-5-chlorophenoxy)phenyl)-N-ethyl-5-methyl-1H-imidazole-4-carboxamide] | 80.79% | 7.64
COC[C@@H]1NC(=O)[C@H](C)N(Cc2ccc(Cl)cc2Oc2ccc(-c3cnc(CN4CCCC4)n3C)c(F)c2F)C(=O)C[C@@H](Cc2ccccc2)C(=O)N(C)[C@@H](C)CNC(=O)C[C@H](Cc2ccc(Cl)cc2)N(C)C1=O [Compound 299, (2S,5S,8S,13S,16R)-16-benzyl-1-(4-chloro-2-(2,3-difluoro-4-(1-methyl-2-(pyrrolidin-1-ylmethyl)-1H-imidazol-5-yl)phenoxy)benzyl)-8-(4-chlorobenzyl)-5-(methoxymethyl)-2,7,13,14-tetramethyl-1,4,7,11,14-pentaazacyclooctadecane-3,6,10,15,18-pentaone] | 95.40% | 8.48
COC[C@@H]1NC(=O)[C@H](C)N(Cc2ccc(Cl)cc2Oc2ccc(-c3cncc(C4=CCNCC4)c3)cc2)C(=O)C[C@@H](Cc2ccccc2)C(=O)N(C)[C@@H](C)CNC(=O)C[C@H](Cc2ccc(Cl)cc2)N(C)C1=O [Compound 136, (2S,5S,8S,13S,16R)-16-benzyl-1-(4-chloro-2-(4-(1′,2′,3′,6′-tetrahydro-[3,4′-bipyridin]-5-yl)phenoxy)benzyl)-8-(4-chlorobenzyl)-5-(methoxymethyl)-2,7,13,14-tetramethyl-1,4,7,11,14-pentaazacyclooctadecane-3,6,10,15,18-pentaone] | 96.16% | 8.30
COC[C@@H]1NC(=O)[C@H](CCCN2CCOCC2)N(Cc2ccc(Cl)cc2Oc2ccc(-c3cnc(CN(C)C)n3C)cc2)C(=O)C[C@@H](Cc2ccccc2)C(=O)N(C)[C@H]2CCCC[C@@H]2NC(=O)C[C@H](Cc2ccc(Cl)cc2)N(C)C1=O [Compound 272, (4S,7S,10S,14R,16aS,20aS)-14-benzyl-11-(4-chloro-2-(4-(2-((dimethylamino)methyl)-1-methyl-1H-imidazol-5-yl)phenoxy)benzyl)-4-(4-chlorobenzyl)-7-(methoxymethyl)-5,16-dimethyl-10-(3-morpholinopropyl)hexadecahydrobenzo[l][1,4,7,11,14]pentaazacyclooctadecine-2,6,9,12,15(3H)-pentaone] | 98.30% | 8.92
COC[C@@H]1NC(=O)[C@H](C)N(Cc2ccc(Cl)cc2Oc2ccc(-c3cnc(CN4CCCC4)n3C)cc2)C(=O)C[C@@H](Cc2ccccc2)C(=O)N(C)[C@@H](CCCCN)CNC(=O)C[C@H](Cc2ccc(Cl)cc2)N(C)C1=O.O=C(O)C(F)(F)F [Compound 169, (2S,5S,8S,13S,16R)-13-(4-aminobutyl)-16-benzyl-1-(4-chloro-2-(4-(1-methyl-2-(pyrrolidin-1-ylmethyl)-1H-imidazol-5-yl)phenoxy)benzyl)-8-(4-chlorobenzyl)-5-(methoxymethyl)-2,7,14-trimethyl-1,4,7,11,14-pentaazacyclooctadecane-3,6,10,15,18-pentaone trifluoroacetate] | 91.73% | 8.89
COC[C@@H]1NC(=O)[C@H](C)N(Cc2ccc(Cl)cc2Oc2ccc(-c3cnc(CN4CCCC4)n3C)cc2)C(=O)C[C@@H](Cc2ccccc2)C(=O)N(C)[C@@H](C)[C@H](C)NC(=O)C[C@H](Cc2ccc(Cl)cc2)N(C)C1=O [Compound 198, (2S,5S,8S,12S,13S,16R)-16-benzyl-1-(4-chloro-2-(4-(1-methyl-2-(pyrrolidin-1-ylmethyl)-1H-imidazol-5-yl)phenoxy)benzyl)-8-(4-chlorobenzyl)-5-(methoxymethyl)-2,7,12,13,14-pentamethyl-1,4,7,11,14-pentaazacyclooctadecane-3,6,10,15,18-pentaone] | 98.27% | 9.22
